Here are results for 32 compounds from ChEMBL document CHEMBL4266006, “Synthesis and Evaluation of Aryl Quinolines as HIV-1 Integrase Multimerization Inhibitors” (ACS Med Chem Lett, 2018).

For this assay, the target named is Human immunodeficiency virus type 1 integrase (Human immunodeficiency virus 1, UniProt Q7ZJM1). As to the kind of experiment: Inhibition of N-terminal His/flag-tagged HIV1 integrase expressed in Escherichia coli BL21 (DE3) incubated for 2.5 hrs by HTRF assay. (In general: In TR-FRET formats the signal depends on donor and acceptor labels being close together.)
Human immunodeficiency virus type 1 integrase, sequence (Q7ZJM1 whole entry): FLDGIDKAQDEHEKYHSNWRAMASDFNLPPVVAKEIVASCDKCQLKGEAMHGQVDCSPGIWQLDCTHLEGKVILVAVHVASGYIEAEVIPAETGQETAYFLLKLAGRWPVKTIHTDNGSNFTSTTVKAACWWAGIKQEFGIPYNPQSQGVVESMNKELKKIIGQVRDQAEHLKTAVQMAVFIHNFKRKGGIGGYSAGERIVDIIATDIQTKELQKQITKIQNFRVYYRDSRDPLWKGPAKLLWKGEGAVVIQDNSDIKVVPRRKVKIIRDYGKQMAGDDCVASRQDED

Consider `Cc1nc2ccccc2c(-c2ccccc2)c1C(OC(C)(C)C)C(=O)O` (configuration not stated), for which, where the note is “read-out: EC50”, the EC50 – broadly, the concentration giving half of the maximal effect – is 1320 nM.

For `CSc1ccccc1-c1c(C(OC(C)(C)C)C(=O)O)c(C)nc2ccccc12` (configuration not stated), the EC50 (read-out: EC50) was 4510 nM.

Turning to `Cc1nc2ccccc2c(-c2ccc(C#N)cc2)c1C(OC(C)(C)C)C(=O)O` (configuration not stated), the EC50 (read-out: EC50) was 2970 nM.

`Cc1ccc(-c2c(C(OC(C)(C)C)C(=O)O)c(C)nc3ccccc23)cc1` (configuration not stated): where the note is “read-out: EC50”, the EC50 was determined as 240 nM.

Consider `Cc1nc2ccccc2c(-c2cncnc2)c1C(OC(C)(C)C)C(=O)O` (configuration not stated), for which the concentration giving a half-maximal response (EC50) entry was “Not Active”.

In the case of `Cc1nc2ccccc2c(-c2ccc(C(F)(F)F)cc2)c1C(OC(C)(C)C)C(=O)O` (configuration not stated), the EC50 (read-out: EC50) was found to be 720 nM.

Turning to `Cc1nc2ccc(Br)cc2c(-c2ccc(Cl)cc2)c1C(OC(C)(C)C)C(=O)O` (configuration not stated), where the note is “read-out: EC50”, the concentration giving a half-maximal response (EC50) worked out at 70 nM.

Take `CC(=O)Nc1ccc(-c2c(C(OC(C)(C)C)C(=O)O)c(C)nc3ccccc23)cc1` (configuration not stated): the EC50 (read-out: EC50) was 8410 nM.

With `Cc1nc2ccccc2c(-c2ccc(-c3ccccc3)cc2)c1C(OC(C)(C)C)C(=O)O` (configuration not stated), the 50% effective concentration (EC50) result is “Not Active”.

As to `Cc1nc2ccccc2c(-c2cccc(Cl)c2)c1C(OC(C)(C)C)C(=O)O` (configuration not stated), the EC50 (read-out: EC50) worked out at 3790 nM.

With `COc1ccc(-c2c(C(OC(C)(C)C)C(=O)O)c(C)nc3ccccc23)cc1OC` (configuration not stated), the EC50 (read-out: EC50) was determined as 3700 nM.

For `Cc1nc2ccccc2c(-c2cccc(C#N)c2)c1C(OC(C)(C)C)C(=O)O` (configuration not stated), the EC50 entry is listed as “Not Active”.

With `Cc1ccccc1-c1c(C(OC(C)(C)C)C(=O)O)c(C)nc2ccccc12` (configuration not stated), the concentration giving a half-maximal response (EC50) (read-out: EC50) was 510 nM.

Regarding `Cc1nc2ccccc2c(-c2ccoc2)c1C(OC(C)(C)C)C(=O)O` (configuration not stated), the EC50 (read-out: EC50) was 2210 nM.

With `COc1cccc(-c2c(C(OC(C)(C)C)C(=O)O)c(C)nc3ccccc23)c1` (configuration not stated), the EC50 (read-out: EC50) was 1380 nM.

Consider `COc1ccccc1-c1c(C(OC(C)(C)C)C(=O)O)c(C)nc2ccccc12` (configuration not stated), for which, where the note is “read-out: EC50”, the EC50 stood at 8390 nM.

With `CSc1ccc(-c2c(C(OC(C)(C)C)C(=O)O)c(C)nc3ccccc23)cc1` (configuration not stated), the EC50 (read-out: EC50) is 490 nM.

Take `Cc1nc2ccccc2c(-c2ccc(F)cc2)c1C(OC(C)(C)C)C(=O)O` (configuration not stated): the EC50 (read-out: EC50) was found to be 490 nM.

`Cc1nc2ccccc2c(-c2cccs2)c1C(OC(C)(C)C)C(=O)O` (configuration not stated): the EC50 result is on record as “Not Active”.

Turning to `CC(=O)c1ccc(-c2c(C(OC(C)(C)C)C(=O)O)c(C)nc3ccccc23)cc1` (configuration not stated), the EC50 (read-out: EC50) was determined as 1390 nM.

Take `Cc1nc2ccccc2c(-c2ccc(Cl)cc2)c1C(OC(C)(C)C)C(=O)O` (configuration not stated): under “read-out: EC50”, the 50% effective concentration (EC50) is 100 nM.

As to `Cc1nc2ccccc2c(-c2ccccc2C#N)c1C(OC(C)(C)C)C(=O)O` (configuration not stated), under “read-out: EC50”, the half-maximal effective concentration (EC50) stood at 11100 nM.

As for `Cc1cccc(-c2c(C(OC(C)(C)C)C(=O)O)c(C)nc3ccccc23)c1` (configuration not stated), under “read-out: EC50”, the 50% effective concentration (EC50) came to 950 nM.

`Cc1nc2ccccc2c(-c2ccc3c(c2)CCCO3)c1C(OC(C)(C)C)C(=O)O` (configuration not stated): the EC50 (read-out: EC50) came out at 27 nM.

Regarding `Cc1nc2ccccc2c(-c2ccccc2Cl)c1C(OC(C)(C)C)C(=O)O` (configuration not stated), the EC50 (read-out: EC50) was found to be 260 nM.

Consider `Cc1nc2ccccc2c(-c2ccc3c(c2)c2ccccc2n3-c2ccccc2)c1C(OC(C)(C)C)C(=O)O` (configuration not stated), for which the EC50 result was “Not Active”.

Turning to `COc1ccc(-c2c(C(OC(C)(C)C)C(=O)O)c(C)nc3ccccc23)cc1` (configuration not stated), for the setting “read-out: EC50”, the half-maximal effective concentration (EC50) was 230 nM.

For the compound `Cc1nc2ccccc2c(-c2ccc3c(c2)OCCO3)c1C(OC(C)(C)C)C(=O)O` (configuration not stated), the concentration for a half-maximal effect (EC50) (read-out: EC50) came to 80 nM.

In the case of `Cc1nc2ccccc2c(-c2cccc(F)c2)c1C(OC(C)(C)C)C(=O)O` (configuration not stated), the EC50 (read-out: EC50) was found to be 2110 nM.

`CSc1cccc(-c2c(C(OC(C)(C)C)C(=O)O)c(C)nc3ccccc23)c1` (configuration not stated): the EC50 (read-out: EC50) was found to be 1000 nM.

Take `Cc1nc2ccccc2c(-c2ccc(OC(F)(F)F)cc2)c1C(OC(C)(C)C)C(=O)O` (configuration not stated): under “read-out: EC50”, the half-maximal effective concentration (EC50) stood at 350 nM.

Consider `Cc1nc2ccccc2c(-c2ccccc2F)c1C(OC(C)(C)C)C(=O)O` (configuration not stated), for which, for the setting “read-out: EC50”, the concentration for a half-maximal effect (EC50) amounted to 580 nM.
